# Target: T1, Glucokinase (Homo sapiens, UniProt P35557)
# T1 sequence (P35557 1-465): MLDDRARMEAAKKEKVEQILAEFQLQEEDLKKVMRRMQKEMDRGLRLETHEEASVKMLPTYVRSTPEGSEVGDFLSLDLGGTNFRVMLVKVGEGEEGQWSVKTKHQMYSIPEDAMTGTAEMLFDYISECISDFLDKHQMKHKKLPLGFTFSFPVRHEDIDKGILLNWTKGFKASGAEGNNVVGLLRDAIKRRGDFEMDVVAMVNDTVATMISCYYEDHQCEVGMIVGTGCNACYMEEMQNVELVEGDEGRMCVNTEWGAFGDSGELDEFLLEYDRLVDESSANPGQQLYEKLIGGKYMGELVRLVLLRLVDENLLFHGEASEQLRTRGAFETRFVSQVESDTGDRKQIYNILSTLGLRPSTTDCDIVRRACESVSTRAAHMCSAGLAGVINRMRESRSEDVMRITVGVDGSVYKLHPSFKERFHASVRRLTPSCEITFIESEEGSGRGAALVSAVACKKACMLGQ
# Experiment: Glucokinase Activation Screening Assay (coupled enzyme assay with PK/LDH)
# Format: biochemical
# Conditions: human GK enzyme
# Description: GK activity (human or rat enzyme) is measured by a coupled enzyme assay using pyruvate kinase (PK) and lactate dehydrogenase (LDH) as coupling enzymes. GK activity is calculated from the decline in NADH monitored photometrically with a microtiter plate (MTP) reader at 340 nm. For screening purposes, the GK assay is routinely run in a 384-MTP format, in a total volume of 33 μl/well. 10 μl of the ATP-regeneration solution (in HEPES-buffer*, pH 7.0, 6.73 U/ml pyruvate kinase, 6.8 U/ml lactate dehydrogenase) and 10 μl of the glucokinase-/glucose solution (15 μg/ml, 6.6 mM glucose in HEPES-buffer*, pH 7.0; the concentration of the glucose stock-solution was 660 mM in Millipore H2O) were mixed together with […] of a 10% DMSO solution (in HEPES-buffer*, pH 7.0) containing 3.3-fold the amounts of the compounds to achieve final compound concentrations in the range between 1 nM to 30 μM (sometimes 300 μM) in the assay solution (s. below). The solutions were mixed for 5 sec, and after a centrifugation at 243×g for 5 min, the solutions were preincubated for 25 min at room temperature.
# The reaction was started by the addition of 10 μl of the NADH-/ATP-solution (4.29 mM NADH, 4.95 mM ATP, in HEPES-buffer*). The MTP was shaken for 5 sec., and then, the absorbance at 340 nm was monitored continuously in a MTP-reader (TECAN Spectro fluor plus) for the next 27 min (with a MTP-cycling time of 199 sec.). The final concentrations of the various components were as follows: 49.5 mM Hepes, pH 7.0, 1.49 mM PEP,1,3 mM NADH, 49.5 mM KCl, 4.96 mM MgCl2, 1.5 mM Mg-ATP, 1.98 mM DTT, 2.04 U/ml pyruvate kinase, 2.06 U/ml lactate-dehydrogenase, 0.91% DMSO, 0.15 μg/well glucokinase, and test compounds in the range between 1 nM and […] The change in the optical density (ΔOD340 nm) in the presence of the compound was expressed relative to the ΔOD340 nm, ctrl of the control incubation (in the presence of 2 mM glucose and 0.91% DMSO), taking into account the optical density of the blank sample (incubation in the absence of 2 mM glucose). For the determination of the half maximal effective concentration (EC50), the %-Ctrl-values were plotted in a semi-logarithmic graph against the conc. of the compound of interest. The data points were fitted to a sigmoid curve function (f(x)=((%-Ctrlmax−%-Ctrlmin)/(1−(EC50/x**^n(Hill)))+%-Ctrlmin)) by a non-linear regression analysis.
# *Hepes-buffer (50 mM Hepes, pH 7.0, 5 mM MgCl2, 50 mM KCl, 1.5 mM PEP, 0.1% BSA). DTT was added to the Hepes-buffer from a 200× stock solution (in Millipore H2O) freshly each day. The final concentration of DTT in the Hepes-buffer is 2 mM.
row,Structure (SMILES),fold activation (human) [fold]
1,"Cn1ccc(NC(=O)c2cc(Cl)nc(Oc3ccccc3)c2)n1 [B5, 2-Chloro-N-(1-methyl-1H-pyrazol-3-yl)-6-phenoxy-isonicotinamide]",1.3
2,"COCC(C)Oc1cc(OC(C)COC)nc(C(=O)Nc2ccn(C)n2)n1 (stereo not drawn) [B7, 4,6-Bis-(2-methoxy-1-methyl-ethoxy)-pyrimidine-2-carboxylic acid (1-methyl-1H-pyrazol-3-yl)-amide]",1.3

# Continued, values first:
row,fold activation (human) [fold],Structure (SMILES)
1,3.3,"CN(C)c1cc(C(=O)Nc2ccn(Cc3cccnc3)n2)cc(Oc2ccccc2)n1 [B2, 2-Dimethylamino-6-phenoxy-N-(1-pyridin-3-ylmethyl-1H-pyrazol-3-yl)-isonicotinamide]"
2,1.8,"COCCN(C)c1cc(C(=O)Nc2ccn(Cc3cccnc3)n2)cc(Oc2ccccc2)n1 [B4, 2-[(2-Methoxy-ethyl)-methyl-amino]-6-phenoxy-N-(1-pyridin-3-ylmethyl-1H-pyrazol-3-yl)-isonicotinamide]"
3,3.4,"COCCN(C)c1cc(C(=O)Nc2ccn(C)n2)cc(Oc2ccccc2)n1 [B6, 2-[(2-Methoxy-ethyl)-methyl-amino]-N-(1-methyl-1H-pyrazol-3-yl)-6-phenoxy-isonicotinamide]"
4,1.4,"CN(Cc1ccccc1)c1cc(C(=O)Nc2ccn(C)n2)cc(Oc2ccccc2)n1 [B8, 2-(Benzyl-methyl-amino)-N-(1-methyl-1H-pyrazol-3-yl)-6-phenoxy-isonicotinamide]"

# Source: patent publication US20110009437A1, “CARBOXAMIDE-HETEROARYL DERIVATIVES FOR THE TREATMENT OF DIABETES” (MERCK PATENT GESELLSCHAFT MIT BESCHRANKTER HAFTUNG, priority 2008, published 2011)
